Reference: paper PMC4336141, “Repurposing Auranofin as a Lead Candidate for Treatment of Lymphatic Filariasis and Onchocerciasis” (PLoS Neglected Tropical Diseases, 2015)

Columns and labels:
[1] = biological target: glutathione reductase; set-up: method as in PMID 9685351; details: higher IC50; cited from earlier work
[2] = tested on: B. pahangi; assay: Worm retrieval from B. pahangi infected gerbils treated orally; assay type: in vivo, Mongolian gerbils (Meriones unguiculatus); details: for reduction in worm burden: 48 doses over 28 days, vs vehicle
Description: Animal studies were performed under IACUC approval #AN085723–02 to test the efficacy of auranofin in vivo. Male Mongolian gerbils (Meriones unguiculatus, Charles River Laboratories International, Inc., Wilmington, MA) were injected intraperitoneally (IP) with 300 B. pahangi L3 (Filariatech, Inc., Athens, GA) and treated 3 months post-infection. Auranofin was dissolved in 100% ethanol at 4 mg/mL and mixed 1:1 with PBS. Vehicle doses consisted of the same mixture of ethanol and PBS but without auranofin. Doses (up to 200 μl) were given to gerbils orally at 5 mg/kg body weight, BID weekdays and SID weekends for a total of 48 doses over 4 weeks.
Two studies (Study 1 and Study 2) were conducted using the same protocols and the same dosing schedule except that in Study 1, two gerbils from the auranofin treatment group and two gerbils from the vehicle group were treated for 14 days and were necropsied 2 hours after their last dose (interim necropsy) to determine plasma gold levels (from auranofin). The remaining gerbils in Study 1 were treated for 28 days and were necropsied 11, 14, or 16 days after the end of dosing. In Study 2, all gerbils were treated for 28 days and were necropsied 16 days after the end of dosing. For both of these in vivo studies, worms were collected from the gerbil’s peritoneal cavity, counted, sexed and examined under a dissecting microscope. For each study a two-tailed Student’s T-test assuming equal variance was conducted using Microsoft Excel to determine the statistical significance of the difference in mean worm retrieval between the auranofin treated and vehicle treated groups. Gerbil blood was collected by cardiac puncture and plasma was sent to NMS Labs, Willow Grove, PA to determine plasma gold levels (elemental gold analysis) by graphite furnace atomic absorption spectroscopy.

[3] = tested on: adult female O. ochengi; assay: Transmission electron microscopy of treated adult female O. ochengi; assay type: cell-based, Onchocerca ochengi; details: 10 μM, 7 days, vs untreated
Description: Adult female B. pahangi worms were incubated with either 1 μM, 0.3 μM, or 0.1 μM auranofin, 10 μM flubendazole (as a positive control), or 1% DMSO overnight, then cut into 3 segments separating the anterior, middle and posterior sections. The middle sections were further cut into 1 mm sized pieces in fixative (2.5% glutaraldehyde and 2% paraformaldehyde in 0.1 M sodium cacodylate buffer, pH 7.3–7.4) and stored at 4°C. Middle sections were subsequently treated with 1% tannic acid for 1 hour, followed by three buffer washes before post fixation staining with 2% osmium tetroxide for 1 hour. The samples were washed three times in buffer before dehydration in an ethanol series. Worm sections were then infiltrated with propylene oxide, embedded in epon 812 resin and polymerized in a vacuum oven at 60°C overnight. Ultrathin sections were cut using an RMC MTX ultramicrotome with a Diatome diamond knife followed by post staining of the grids with saturated ethanolic uranyl acetate and Reynolds lead citrate. Samples were imaged on a FEI Tecnai 12 spirit TEM operated at 80 kV. A similar procedure was performed on adult female O. ochengi worm masses that were cultured for 7 days with 10 μM auranofin before fixation of cut pieces of the adult female mass. Untreated adult female masses cultured for 7 days and fixed by the same procedure served as the control.

[4] = tested on: Recombinant B. malayi TrxR (rBmTrxR); assay: Recombinant B. malayi TrxR (rBmTrxR) DTNB inhibition assay; assay type: biochemical, Brugia malayi
Description: Recombinant 6-His-tagged B. malayi TrxR (rBmTrxR) was produced in E. coli BL21(DE3) in the presence of pSUABC [29] in LB medium supplemented with 20 μg/mL riboflavin under conditions for optimal selenoprotein expression. An overnight starter culture in LB with 50 μg/mL ampicillin and 34 μg/mL chloramphenicol was diluted (1:100) into in LB medium with the same antibiotics. When the culture reached an OD600 = 0.8, the medium was supplemented with 5 μM sodium selenite and 100 μg/mL L-cysteine. When the culture OD600 = 2, riboflavin (20 μg/mL) was added and protein expression was induced by the addition of isopropyl β-D-1-thiogalactopyranoside (50 μM). At this point the cultures were shifted to 24°C and incubated for 24 hr. Cells were collected by centrifugation, lysed by alternative freeze-thaw cycles, and resuspended in lysis buffer (50 mM potassium phosphate, pH 7.8, 500 mM NaCl, 30 mM imidazole, 1 mg/mL lysozyme, 1 mM phenylmethanesulfonylfluoride) supplemented with 100 μM flavin adenine dinucleotide. The sample was sonicated and cellular debris pelleted at 25,000 x g at 4°C for 25 min. The supernatant was collected and filtered through a 0.45 μm filter before purification by immobilized metal ion affinity chromatography using a His-Trap FF column (GE Healthcare). The column was washed with 10 column volumes binding buffer (50 mM potassium phosphate, pH 7.8, 500 mM NaCl, 30 mM imidazole) and then with 5 column volumes of buffer A (binding buffer with 100 mM imidazole). TrxR protein was eluted in 3 × 1 mL buffer B (binding buffer with 500 mM imidazole).Protein was concentrated (Amicon Ultra-4 10K) and purity was verified by SDS-PAGE and quantified by absorbance at 280 nm (ε = 69.76 mM^-1 cm^-1).
rBmTrxR activity was assayed in 0.1 M potassium phosphate (pH 7.2) with 10 mM EDTA and 25 nM rBmTrxR. rBmTxrR was pre-incubated for 20 min with NADPH (100 μM) and auranofin (ICN Pharmaceuticals, now Valeant Pharmaceuticals, Bridgewater, NJ) or aurothioglucose (USP Reference Standards, Rockville, MD) in DMSO in 100 μL, followed by addition of an equal volume of buffer with NADPH (200 μM) and DTNB (6 mM) with reaction progress monitored at λ = 412 nm for TNB production. The concentration of DMSO in all reactions was 3.5%.

[5] = Study 1 interim necropsy, 14 days of treatment

For `CC[PH](CC)(CC)[Au][S][C@@H]1O[C@H](COC(C)=O)[C@@H](OC(C)=O)[C@H](OC(C)=O)[C@H]1OC(C)=O` [auranofin, 2,3,4,6-tetra-O-acetyl-1-thio-beta-D-glucopyranosato-S (triethylphosphine) gold], the “IC50 relative to TrxR isolated from human placenta” value [1] is given as “about 1000 fold”, the “reduction in worm burden” value ([2]; Study 1, 5 mg/kg oral, not statistically significant (p > 0.05)) is given as 58% and the “average number of worms” value ([2]; Study 1, all treated animals (n = 9), vehicle 9.4) is given as 4.0 worms. The female worms [2, 5] was 7, the male worms [2, 5] was 4 and the “total number of worms” value ([2]; Study 1 interim necropsy, 14 days of treatment, two gerbils, vehicle 43) was 11. The male worms recovered ([2]; Study 2) was 11, the “reduction in worm burden” value ([2]; Study 2, 5 mg/kg oral, necropsy 16 days after end of dosing, p = 0.01) was 91% and the female worms recovered ([2]; Study 2, remaining female encapsulated with host tissue) was 1. For the same compound, the “mean worms per gerbil” value ([2]; Study 2, vehicle 32) was 3 worms per gerbil, the total worms recovered ([2]; Study 2, vehicle 161) was 12 and the “ultrastructure (TEM) of adult female O. ochengi” value [3] was “Numerous vacuoles with inclusion bodies were observed in the muscle tissue below the hypodermal chord”. The “mode of inhibition of rBmTrxR” value [4] was “irreversibly inhibit rBmTrxR at a one-to-one molar ratio” and the IC50 ([4]; 25 nM rBmTrxR, 20 min pre-incubation with NADPH, DTNB substrate) was 3 nM.
